These results are taken from article PMC6689897, “Drugging an undruggable pocket on KRAS” (Proceedings of the National Academy of Sciences of the …, 2019).

Molecules are shown by their SMILES.

The subject of one experiment is NCI-H358 cells. The experiment in a line: pERK quantification (Meso Scale Discovery). In kind it is cell-based, human. Here is the method:
Active RAS signals through RAF and MEK to induce phosphorylation of ERK (phospho-ERK). Phospho-ERK levels were quantified using a plate-based electrochemiluminescent assay (MESO SCALE DISCOVERY). […]
252 (175 cm2) using RPMI medium supplemented with 10% fetal bovine serum. Cultures
253 were incubated at 37 °C and 5% CO2 in a humidified atmosphere, with medium change
254 or subcultivation 2-3 times a week. […]
257 atmosphere, with medium change or subcultivation 2-3 times a week. In case starvation
258 conditions were used in combination with EGF stimulation, cells were kept in medium
260 stimulation (50ng/mL) for 10 minutes. […]
308 The next day the compounds (30µL of serial dilutions) were added in triplicates. The
310 nano molar minimum. Compounds (Stock: 10mM in 100% DMSO) were diluted in
311 medium. Cells were incubated at 37°C and 5% CO2 in a humidified atmosphere for 14
312 days. […]
315 wavelength was 544/15 nm, emission 590 nm. Data were fitted by iterative calculation
316 using a sigmoidal curve analysis program based on GraphPAD Prism with variable hill
319 MAPK pathway signaling (pERK, pAKT quantification)
320 MSD 96-well multispot assays for Phospho/Total ERK1/2 and Phospho(Ser473)/Total
321 AKT whole cell lysate kits (Meso Scale Discovery, Gaithersburg, MD, #K15107D,
322 #K15100D) were used according to the manufacturer’s instructions. Briefly, 50.000
323 cells were seeded per well and grown in 96 well plates. Cells were washed in ice cold
324 PBS and lysed in 50µL ice-cold lysis buffer supplemented with the provided protease
325 inhibitors. MSD plates were blocked for 1h, washed and 40µL of lysate was added in
326 duplicates to wells and incubated at room temperature for 3 hours while shaking at
327 400rpm. To measure the amount of phosphorylated AKT or ERK, the specific primary
328 antibody was added for 1 hour. After washing, read buffer was added and the plates
329 were measured on a SECTOR 6000 instrument (Meso Scale Discovery). Samples were
330 normalized to total ERK or total AKT values, respectively.
332 RAS GTP detection (Ras G-LISA Activation assay):
333 Ras-GTP levels were analyzed using a Ras G-LISA assay kit (Cytoskeleton Inc.,
335 600.000 cells were seeded in 6 wells and grown to 70% confluence. Cells were washed
337 provided protease inhibitor cocktail. Lysates were quickly frozen in liquid nitrogen
338 and stored at -80°C until further usage. After normalizing protein concentration, 40µg
339 of protein was added in duplicates to wells of the Ras G-LISA plate coated with Ras
340 GTP-binding protein and incubated at 4°C for 30 minutes while shaking at 400rpm. […]
344 HRP detection reagent. Absorbance was measured by 490nm using an EnSpire
345 Multimode Reader (Perkin Elmer). Background was determined by a negative control […]

For another experiment, the target named is T1, GDP-KRASG12D::SOS1 (Homo sapiens, UniProt P01116, G12D).
T1 construct: KRAS (G12D) 1-169, N-terminal 6His-tag, C-terminal avi-tag was from Xtal; 6His-tag (N); purchased Xtal BioStructures, Inc
T1 sequence (P01116 1-169 isoform P01116-2 G12D): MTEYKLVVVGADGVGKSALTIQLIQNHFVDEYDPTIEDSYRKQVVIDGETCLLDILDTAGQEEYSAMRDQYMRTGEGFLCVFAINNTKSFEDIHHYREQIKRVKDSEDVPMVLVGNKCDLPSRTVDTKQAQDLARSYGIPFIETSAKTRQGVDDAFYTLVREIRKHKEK
Nature of the experiment: Alpha Screen PPI assay. The settings on record: for IC50: Alpha Screen, duplicate. In kind it is biochemical. Here is the method: (§1) 221 Measurements of various protein–protein interactions were performed using the Alpha
(§2) 222 Screen technology developed by Perkin Elmer. Recombinant RAS proteins (H-, N-, K-
(§3) 223 RAS variants; all KRAS variants are based on KRAS isoform 4B (uniprot id P01116-2);
(§4) 224 KRAS (G12D) 1-169, N-terminal 6His-tag, C-terminal avi-tag was from Xtal
(§5) 225 BioStructures, Inc., KRAS (G12C) 1-169, C-terminal avi-tag, biotinylated, mutations:
(§6) 226 C51S, C80L, C118S, NRAS(wt) 1-172, C-terminal avi-tag, biotinylated; HRAS(wt) 1-
(§7) 227 166, C-terminal avi-tag, biotinylated). Biotinylation was performed in vitro with
(§8) 228 recombinant BirA biotin-protein ligase as recommended by the manufacturer (Avidity
(§9) 229 LLC, Aurora, Colorado, USA). Interacting proteins such as SOS1 (564-1049, N-terminal
(§10) 230 GST-tag, TEV cleavage site), cRaf (1-303, N-terminal GST-tag, TEV cleavage site) and
(§11) 231 PI3KA- RBD (160-317, N-term-HIS_GST-tag) were expressed as glutathione S
(§12) 232 transferase (GST) fusions. Accordingly, the Alpha Screen beads were glutathione coated
(§13) 233 Alpha Lisa acceptor beads (Perkin Elmer AL 109 R) and Alpha Screen Streptavidin
(§14) 234 conjugated donor beads (Perkin Elmer 6760002L). Nucleotides were purchased from
(§15) 236 interaction assays were carried out in PBS, containing 0.1% bovine serum albumin,
(§16) 237 0,05% Tween-20 and 10 µM of the corresponding nucleotide. Assays were carried out in
(§17) 238 white ProxiPlate-384 Plus plates (Perkin Elmer #6008280) in a final volume of 20 µL. In
(§18) 239 brief, biotinylated RAS proteins (10 nM final concentration) and GST-SOS1, GST-PI3K
(§19) 240 or GST-CRAF (10 nM final) were mixed with glutathione acceptor beads (5 µg/mL final
(§20) 241 concentration) in buffer, containing the corresponding nucleotides (GDP or GTP for
(§21) 242 assays containing SOS1, only GTP for interaction assays containing PI3K or CRAF) and
(§22) 243 were incubated for 30 min at room temperature. After addition of streptavidin donor
(§23) 244 beads (5 µg/mL final concentration) under green light, the mixture was further incubated
(§24) 245 for 60 min in the dark at room temperature. Single oxygen induced fluorescence was
(§25) 246 measured at an Enspire multimode plate reader (Perkin Elmer) according to the
(§26) 247 manufacturer’s recommendations. […]

In the next experiment the target is GTP-KRASG12C::CRAF (Homo sapiens, UniProt P01116, C118S/C51S/C80L/G12C). Nature of the experiment: Alpha Screen PPI assay. In kind it is biochemical. The settings on record: duplicate. The procedure: as §1, §2, §3, §4, §5, §6, §7, §8, §9, §10, §11, §12, §13, §14, §15, §16, §17, §18, §19, §20, §21, §22, §23, §24, §25, §26
Sequence of GTP-KRASG12C::CRAF (P01116 1-169 isoform P01116-2 G12C/C51S/C80L/C118S): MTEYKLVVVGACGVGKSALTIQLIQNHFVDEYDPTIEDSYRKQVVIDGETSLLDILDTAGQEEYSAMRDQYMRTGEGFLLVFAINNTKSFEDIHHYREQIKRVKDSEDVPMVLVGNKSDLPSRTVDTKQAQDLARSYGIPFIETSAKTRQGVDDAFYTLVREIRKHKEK
Another experiment addresses GTP-KRASG12C::SOS1 (Homo sapiens, UniProt P01116, C118S/C51S/C80L/G12C). Nature of the experiment: Alpha Screen PPI assay. In kind it is biochemical. The conditions noted are these: duplicate. Here is the method: as §1, §2, §3, §4, §5, §6, §7, §8, §9, §10, §11, §12, §13, §14, §15, §16, §17, §18, §19, §20, §21, §22, §23, §24, §25, §26
The target in a further experiment is GTP-KRASG12C::PI3Kα (Homo sapiens, UniProt P01116, C118S/C51S/C80L/G12C). Nature of the experiment: Alpha Screen PPI assay. In kind it is biochemical. The settings on record: duplicate, read-out: IC50 GTP-KRASG12C::PI3K. Here is the method: as §1, §2, §3, §4, §5, §6, §7, §8, §9, §10, §11, §12, §13, §14, §15, §16, §17, §18, §19, §20, §21, §22, §23, §24, §25, §26
Sequence of GTP-KRASG12C::PI3Kα (P01116 1-169 isoform P01116-2 G12C/C51S/C80L/C118S): as above

Sequence of GTP-KRASG12C::SOS1 (P01116 1-169 isoform P01116-2 G12C/C51S/C80L/C118S): as above

On to `C=CC(=O)N1CCN(c2ncnc3c(F)c(-c4c(O)cccc4F)c(Cl)cc23)CC1` [ARS-1620, reference compound], for which the “inhibition of pERK compared with 1” value in the experiment with NCI-H358 cells (high growth factor conditions, 2 h) is given as “similar, albeit more extended, inhibition of pERK”. In addition, at GDP-KRASG12D::SOS1, the “inhibition of GDP-dependent interaction with G12D instead of G12C” value was “lost the ability to inhibit”. Moreover, the IC50 at GDP-KRASG12D::SOS1, against GTP-KRASG12C::CRAF, against GTP-KRASG12C::SOS1 and on GTP-KRASG12C::PI3Kα was more than 10000 nM throughout.
For `Cn1cnc(Cn2ccc3ccc(CNCc4[nH]c5ccccc5c4[C@H]4NC(=O)c5ccc(O)cc54)cc32)c1` [Compound 1], the EC50 – broadly, the concentration that produces a half-maximal response – in the experiment on NCI-H358 cells (Homo sapiens, NCI-H358, high growth factor conditions, 2 h, read-out: EC50 inhibition of pERK relative to total ERK) amounted to 5800 nM. In addition, the pERK levels result with NCI-H358 cells (starved 24 h low serum, 2 h compound, then EGF) is recorded as “dose-dependently reduced”. For the same compound, the “inhibition of GDP-dependent interaction with G12D instead of G12C” value on GDP-KRASG12D::SOS1 is listed as “maintained the inhibitory function”. For the same compound, the IC50 (commonly the concentration at which inhibition is half-maximal) at GDP-KRASG12D::SOS1 was determined as 260 nM; against GTP-KRASG12C::CRAF it was 180 nM; at GTP-KRASG12C::SOS1, 360 nM; on GTP-KRASG12C::PI3Kα, 100 nM.
On to `CN(C)Cc1[nH]c2ccccc2c1[C@H]1NC(=O)c2ccc(O)cc21` [Compound 18], for which the “decrease in phospho-ERK levels” value with NCI-H358 cells (at 50 µM, 2 h after treatment) was “almost complete inhibition”.
